In ChEMBL document CHEMBL1833888, “Fuscoside E: a strong anti-inflammatory diterpene from Caribbean octocoral Eunicea fusca” (2011):
In brackets after ≈: the same amount, converted by molar mass. Activity calls are given as the source filed them. The calls are words filed in the database; no cut-off is given here.

What was measured:
Mus musculus = assay: Antiinflammatory activity in mouse assessed as inhibition of TPA-induced mouse ear edema at 0.5 mg/ear administered relative to untreated control; type: functional
Bacillus sp. = assay: Antibacterial activity against Bacillus sp. by disc-diffusion assay; type: functional, organism-based
[1] = tested on: Brucella pseudogrignonensis; assay: Antibacterial activity against Ochrobactrum pseudogrignonense 21-6 pin by disc-diffusion assay; type: functional, organism-based
Vibrio sp. = assay: Antibacterial activity against Vibrio sp. 11-6 DEP; type: functional

| Compound | inhibition (INH) (Mus musculus) | Activity (Bacillus sp.) | Activity [1] | MIC (Vibrio sp.) |
| --- | --- | --- | --- | --- |
| C=C[C@@]1(C)CC[C@H](/C(C)=C/C=C/C(C)(C)O[C@@H]2OC[C@@H](O)[C@@H](O)[C@@H]2O)C[C@@H]1C(=C)C [FUSCOSIDE B] | 81.5% |  |  |  |
| C/C=C(/CC[C@@H](C)[C@H]1CC[C@H]2[C@@H]3CC=C4C[C@@H](O)CC[C@]4(C)[C@H]3CC[C@]12C)C(C)C |  | Active | Active |  |
| CC(C)C(C)/C=C/[C@@H](C)[C@H]1CC[C@H]2[C@@H]3CC=C4C[C@@H](O)CC[C@]4(C)[C@H]3CC[C@]12C (some centres not stated) |  | Active | Active |  |
| C=C[C@@]1(C)CC[C@H](/C(C)=C/C=C/C(C)(C)O)C[C@@H]1C(=C)C [FUSCOL] | 27.3% |  |  |  |
| CC(C)CCC[C@@H](C)[C@H]1CC[C@H]2[C@@H]3CC=C4C[C@@H](O)CC[C@]4(C)[C@H]3CC[C@]12C |  | Active | Active |  |
| C/C=C(\CC[C@@H](C)[C@H]1CC[C@H]2[C@@H]3CC=C4C[C@@H](O)CC[C@]4(C)[C@H]3CC[C@]12C)C(C)C |  | Active | Active |  |
| COc1ccc2c(c1)c(CC(=O)O)c(C)n2C(=O)c1ccc(Cl)cc1 [INDOMETHACIN] | 77.3% |  |  |  |
| CC(C)C(C)CC[C@@H](C)[C@H]1CC[C@H]2[C@@H]3CC=C4C[C@@H](O)CC[C@]4(C)[C@H]3CC[C@]12C (some centres not stated) |  | Active | Active |  |
| CC(=O)O[C@@H]1[C@H](O[C@H]2CC[C@H](C)[C@@]3(C)C[C@@H](/C(C)=C/CC=C(C)C)CC[C@H]23)OC[C@@H](O)[C@H]1O [FUSCOSIDE E] | 80.5% | Active | Active |  |
| CC(C)C/C=C/[C@@H](C)[C@H]1CC[C@H]2[C@@H]3CC=C4C[C@@H](O)CC[C@]4(C)[C@H]3CC[C@]12C |  | Active | Active |  |
| C=C1/C=C/[C@@H](C(C)C)CC/C(C)=C/CC1 | 7.1% | Active | Active | 15 µg/mL (≈ 73.4 µM) |
